Source: ChEMBL document CHEMBL4265921, “Novel bisphosphonates with antiresorptive effect in bone mineralization and osteoclastogenesis” (Eur J Med Chem, 2018)
Activity calls are given as the source filed them. The calls are words filed in the database; no cut-off is given here.

Tests used:
[1] = target: T1, Farnesyl pyrophosphate synthase (Homo sapiens) (UniProt P14324); assay: Inhibition of recombinant human C-terminal His6-tagged FPPS expressed in Escherichia coli BL21 at 100 uM using DMAPP and IPP as substrates pretreated for 15 mins followed by substrates addition and measured after 1 hr by colorimetric method relative to control
T1 sequence (whole entry): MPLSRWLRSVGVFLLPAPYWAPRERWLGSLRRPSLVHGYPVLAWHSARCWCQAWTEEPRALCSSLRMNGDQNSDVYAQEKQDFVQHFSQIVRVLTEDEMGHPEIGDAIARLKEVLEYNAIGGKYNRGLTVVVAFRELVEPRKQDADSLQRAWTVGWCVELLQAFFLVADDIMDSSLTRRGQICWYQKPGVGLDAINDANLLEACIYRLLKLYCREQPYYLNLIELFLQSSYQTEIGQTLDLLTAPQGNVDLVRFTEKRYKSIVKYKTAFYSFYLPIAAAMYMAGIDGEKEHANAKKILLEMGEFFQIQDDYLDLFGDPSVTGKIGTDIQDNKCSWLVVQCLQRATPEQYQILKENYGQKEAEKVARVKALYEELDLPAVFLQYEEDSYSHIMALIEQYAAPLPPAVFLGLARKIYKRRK

[2] = test system: PC-3; assay: Antiproliferative activity against human PC3 cells assessed as reduction in cell proliferation at 500 uM after 72 hrs by crystal violet staining based assay; format: functional
[3] = test system: MG-63; assay: Antiproliferative activity against human MG63 cells assessed as reduction in cell proliferation at 500 uM after 72 hrs by crystal violet staining based assay; format: functional
[4] = target: T2, Geranylgeranyl pyrophosphate synthase (Homo sapiens) (UniProt O95749); assay: Inhibition of recombinant human C-terminal His6-tagged GGPPS expressed in Escherichia coli BL21 at 1 to 10 uM using IPP and FPP as substrates pretreated for 15 mins followed by substrates addition and measured after 1 hr by colorimetric method relative to control
T2 sequence (whole entry): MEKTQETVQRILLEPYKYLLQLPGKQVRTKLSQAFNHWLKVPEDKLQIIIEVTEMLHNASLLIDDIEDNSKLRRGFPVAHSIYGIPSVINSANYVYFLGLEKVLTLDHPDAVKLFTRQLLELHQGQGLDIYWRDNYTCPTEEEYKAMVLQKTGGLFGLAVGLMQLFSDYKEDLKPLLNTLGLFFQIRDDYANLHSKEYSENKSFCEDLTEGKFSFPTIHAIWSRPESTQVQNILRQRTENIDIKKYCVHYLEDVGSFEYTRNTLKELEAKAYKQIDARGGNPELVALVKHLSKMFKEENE

[5] = target: T1, Farnesyl pyrophosphate synthase (Homo sapiens); assay: Inhibition of recombinant human C-terminal His6-tagged FPPS expressed in Escherichia coli BL21 at 1 to 10 uM using DMAPP and IPP as substrates pretreated for 15 mins followed by substrates addition and measured after 1 hr by colorimetric method relative to control
[6] = test system: J774.A1; assay: Antiproliferative activity against mouse J774A.1 cells assessed as change in cell proliferation at 100 uM after 72 hrs by crystal violet staining based assay relative to control; format: functional
[7] = test system: RAW264.7; assay: Antiproliferative activity against mouse RAW264.7 cells assessed as reduction in cell proliferation at 500 uM after 72 hrs by crystal violet staining based assay; format: functional
[8] = test system: MG-63; assay: Antiproliferative activity against human MG63 cells assessed as change in cell proliferation at 100 uM after 72 hrs by crystal violet staining based assay relative to control; format: functional
[9] = test system: J774.A1; assay: Antiproliferative activity against mouse J774A.1 cells assessed as reduction in cell proliferation at 500 uM after 72 hrs by crystal violet staining based assay; format: functional
[10] = test system: RAW264.7; assay: Antiproliferative activity against mouse RAW264.7 cells assessed as change in cell proliferation at 100 uM after 72 hrs by crystal violet staining based assay relative to control; format: functional
[11] = test system: PC-3; assay: Antiproliferative activity against human PC3 cells assessed as change in cell proliferation at 100 uM after 72 hrs by crystal violet staining based assay relative to control; format: functional
[12] = target: T3, Farnesyl pyrophosphate synthase (Homo sapiens, UniProt P14324); assay: Inhibition of recombinant human C-terminal His6-tagged FPPS expressed in Escherichia coli BL21 using DMAPP and IPP as substrates pretreated for 15 mins followed by substrates addition and measured after 1 hr by colorimetric method
T3 sequence (P14324 whole entry): T1 sequence (whole entry)

[13] = test system: Hydroxyapatite; assay: Binding affinity to hydroxyapatite at 100 uM using sodium salt form of compound after 5 mins by ESI/MS analysis

IC50 [12] [µM] | SMILES | inhibition [1] | Activity [2] | Activity [3] | inhibition [4] [%] | inhibition [5] [%] | Activity [6] [%] | Activity [7] | Activity [8] [%] | Activity [9] | Activity [10] [%] | Activity [11] [%] | Activity [13] [%]
 | O=P(O)(O)C(O)(CNc1nc2ccccc2s1)P(=O)(O)O | inactive | inactive | inactive | 68 to 79 | 68 to 79 |  |  |  |  |  |  | 
 | O=P(O)(O)C(O)(CCCNc1ncnc2ccccc12)P(=O)(O)O | 25% | inactive | inactive | 68 to 79 | 68 to 79 | -10.813 | inactive | 21.28 | inactive | -16.077 | -27.057 | 
 | O=P(O)(O)C(O)(CSc1nc2ccccc2[nH]1)P(=O)(O)O | 24% | inactive | inactive | 68 to 79 | 68 to 79 |  |  |  |  |  |  | 
 | O=P(O)(O)C(O)(CCCCc1ncccn1)P(=O)(O)O | 51% | inactive | inactive | 68 to 79 | 68 to 79 | -24.754 | inactive | -0.023 | inactive | -35.941 | -14.446 | 
41 | O=P(O)(O)C(O)(CCNc1ncc2ccccc2n1)P(=O)(O)O | 79% | inactive | inactive | 68 to 79 | 68 to 79 | -59.879 | inactive | 1.174 | inactive | -52.95 | -13.524 | 84
 | O=P(O)(O)C(O)(CNc1ncnc2ccccc12)P(=O)(O)O | 52% | inactive | inactive | 68 to 79 | 68 to 79 | -27.398 | inactive | -15.397 | inactive | -34.592 | -9.488 | 81
 | O=P(O)(O)C(O)(CCNc1ncnc2ccccc12)P(=O)(O)O | 56% | inactive | inactive | 68 to 79 | 68 to 79 | 6.688 | inactive | 13.185 | inactive | -16.95 | -1.552 | 
 | O=P(O)(O)C(O)(CCCNc1ncccn1)P(=O)(O)O | 43% | inactive | inactive | 68 to 79 | 68 to 79 | -37.544 | inactive | -3.759 | inactive | -44.249 | -45.479 | 
 | O=P(O)(O)C(O)(CNc1ncc2ccccc2n1)P(=O)(O)O | 39.9% | inactive | inactive | 68 to 79 | 68 to 79 | -11.108 | inactive | -15.998 | inactive | -25.015 | -23.934 | 
 | O=P(O)(O)C(O)(CCNc1nc(-c2ccccc2)nc2ccccc12)P(=O)(O)O | 25% | inactive | inactive | 68 to 79 | 68 to 79 | -37.121 | inactive | -5.102 | inactive | -30.319 | -21.523 | 
 | O=P(O)(O)C(O)(CCCNc1ncc2ccccc2n1)P(=O)(O)O | 30% | inactive | inactive | 68 to 79 | 68 to 79 | -58.954 | inactive | 5.921 | inactive | -24.106 | -19.628 | 
 | O=P(O)(O)C(O)(CNc1nc(-c2ccccc2)nc2ccccc12)P(=O)(O)O | 21% | inactive | inactive | 68 to 79 | 68 to 79 | -55.522 | inactive | -1.127 | inactive | -51.774 | 0.156 | 
 | O=P(O)(O)C(O)(CCCCc1ncc2ccccc2n1)P(=O)(O)O | 48% | inactive | inactive | 68 to 79 | 68 to 79 | -47.396 | inactive | -2.74 | inactive | -50.127 | -16.093 | 
 | O=P(O)(O)C(O)(CCCCc1ncnc2ccccc12)P(=O)(O)O | 29% | inactive | inactive | 68 to 79 | 68 to 79 | -15.466 | inactive | 24.024 | inactive | -29.565 | -10.283 | 
 | O=P(O)(O)C(O)(CSc1nc2ccccc2s1)P(=O)(O)O | 26% | inactive | inactive | 68 to 79 | 68 to 79 |  |  |  |  |  |  | 
 | O=P(O)(O)C(O)(CCNc1ncccn1)P(=O)(O)O | 54% | inactive | inactive | 68 to 79 | 68 to 79 | -3.329 | inactive | -18.291 | inactive | -18.897 | -49.419 | 
 | CC(Nc1ncnc2ccccc12)C(O)(P(=O)(O)O)P(=O)(O)O (racemic) | 56% | inactive | inactive | 68 to 79 | 68 to 79 | -5.898 | inactive | -4.026 | inactive | -11.295 | -15.839 | 
 | CC(Nc1ncc2ccccc2n1)C(O)(P(=O)(O)O)P(=O)(O)O (racemic) | 40% | inactive | inactive | 68 to 79 | 68 to 79 | -18.855 | inactive | -8.959 | inactive | -16.783 | -17.252 | 
